Legend:
[1] = Phase I safety assessment; type: in vivo, human; conditions: fasted, healthy subjects; for Number of subjects who reported AEs / Number of subjects with AEs considered to be treatment‐related / Subjects who reported AEs / Subjects with AEs considered to be treatment‐related: after single oral dose of each treatment; for Abdominal pain, number of events / Abdominal pain, number of subjects / Dizziness, number of events / Dizziness, number of subjects / Dysphonia, number of events / Dysphonia, number of subjects / Euphoric mood, number of events / Euphoric mood, number of subjects / Fatigue, number of events / Fatigue, number of subjects / Feeling abnormal, number of events / Feeling abnormal, number of subjects / Headache, number of events / Headache, number of subjects / Nasal congestion, number of events / Nasal congestion, number of subjects / Nausea, number of events / Nausea, number of subjects / Rash, number of events / Rash, number of subjects / Rhinitis, number of events / Rhinitis, number of subjects / Rhinorrhoea, number of events / Rhinorrhoea, number of subjects / Somnolence, number of events / Somnolence, number of subjects / Vessel puncture site pain, number of events / Vessel puncture site pain, number of subjects / Vessel puncture site reaction, number of events / Vessel puncture site reaction, number of subjects: single oral dose
[2] = Phase I single-dose pharmacokinetics, plasma tramadol, M1 and celecoxib; type: in vivo, human; conditions: for AUC(0-inf): human, plasma, po, 100 mg
[3] = cited from earlier work
[4] = tramadol administered alone in its conventional form; cited from earlier work
[5] = after use of IR tramadol; cited from earlier work
mu‐opioid receptor = conditions: compared with tramadol itself; cited from earlier work
[6] = celecoxib alone vs. tramadol + celecoxib

| Molecule | Number of subjects who reported AEs [1] | Number of subjects with AEs considered to be treatment‐related [1] | Subjects who reported AEs [1] [%] | Subjects with AEs considered to be treatment‐related [1] [%] | Abdominal pain, number of events [1] | Abdominal pain, number of subjects [1] | Dizziness, number of events [1] | Dizziness, number of subjects [1] | Dysphonia, number of events [1] | Dysphonia, number of subjects [1] | Euphoric mood, number of events [1] | Euphoric mood, number of subjects [1] | Fatigue, number of events [1] | Fatigue, number of subjects [1] | Feeling abnormal, number of events [1] | Feeling abnormal, number of subjects [1] | Headache, number of events [1] | Headache, number of subjects [1] | Nasal congestion, number of events [1] | Nasal congestion, number of subjects [1] | further results |
| --- | --- | --- | --- | --- | --- | --- | --- | --- | --- | --- | --- | --- | --- | --- | --- | --- | --- | --- | --- | --- | --- |
| Cc1ccc(-c2cc(C(F)(F)F)nn2-c2ccc(S(N)(=O)=O)cc2)cc1 [celecoxib] | 12 | 8 | 34.3 | 22.9 | 0 | 0 | 1 / 1 | 1 / 1 | 1 / 1 | 1 / 1 | 0 | 0 | 0 | 0 | 0 | 0 | 1 / 1 | 1 / 1 | 1 / 1 | 1 / 1 | Nausea, number of events [1]: 0; Nausea, number of subjects [1]: 0; Rash, number of events [1]: 1 / 1; Rash, number of subjects [1]: 1 / 1; Rhinitis, number of events [1]: 1 / 1; Rhinitis, number of subjects [1]: 1 / 1; Rhinorrhoea, number of events [1]: 1 / 1; Rhinorrhoea, number of subjects [1]: 1 / 1; Somnolence, number of events [1]: 5 / 5; Somnolence, number of subjects [1]: 5 / 5; Vessel puncture site pain, number of events [1]: 2 / 2; Vessel puncture site pain, number of subjects [1]: 2 / 2; Vessel puncture site reaction, number of events [1]: 1 / 1; Vessel puncture site reaction, number of subjects [1]: 1 / 1; Ratio of geometric LS means (90% CI), celecoxib AUC τ, Treatment 3 vs. Treatment 4 [2, 6]: 110.39 (105.68–115.32) %; Ratio of geometric LS means (90% CI), celecoxib AUC ∞, Treatment 3 vs. Treatment 4 [2, 6]: 103.64 (99.37–108.09) %; Ratio of geometric LS means (90% CI), celecoxib C max, Treatment 3 vs. Treatment 4 [2, 6]: 163.92 (146.56–183.35) %; AUC(0-inf) [2]: 3200 ng·h/mL; time to peak plasma concentrations ([3]; after administration of commercially available formulation): 2 to 3 h; elimination half‐life ([3]; commercially available formulation): 8 to 12 h |
| COc1cccc(C2(O)CCCCC2CN(C)C)c1 (stereo not drawn) [tramadol] | 14 | 14 | 40.0 | 40.0 | 2 / 2 | 2 / 2 | 4 / 4 | 4 / 4 | 1 / 1 | 1 / 1 | 2 / 2 | 2 / 2 | 2 / 2 | 2 / 2 | 1 / 1 | 1 / 1 | 1 / 1 | 1 / 1 | 1 / 1 | 1 / 1 | elimination half‐life (T ½el) [4]: 5 to 6 h; Nausea, number of events [1]: 6; Nausea, number of subjects [1]: 4; Rash, number of events [1]: 0; Rash, number of subjects [1]: 0; Rhinitis, number of events [1]: 0; Rhinitis, number of subjects [1]: 0; Rhinorrhoea, number of events [1]: 0; Rhinorrhoea, number of subjects [1]: 0; Somnolence, number of events [1]: 10 / 10; Somnolence, number of subjects [1]: 10 / 10; Vessel puncture site pain, number of events [1]: 0; Vessel puncture site pain, number of subjects [1]: 0; Vessel puncture site reaction, number of events [1]: 1 / 1; Vessel puncture site reaction, number of subjects [1]: 1 / 1; AUC(0-inf) [2]: 3060 ng·h/mL; subjects affected by the most common AEs (nausea and dizziness) [5]: > 10% |
| (+)‐O‐desmethyl‐tramadol [M1] |  |  |  |  |  |  |  |  |  |  |  |  |  |  |  |  |  |  |  |  | affinity for the mu‐opioid receptor (mu‐opioid receptor): much greater affinity |
